Laboratory results from patent US20200017495A1, “NOVEL HETEROCYCLIC COMPOUNDS AND THEIR USE IN PREVENTING OR TREATING BACTERIAL INFECTIONS” (priority 2017, published 2020).

Assays:
Test in all cases: MIC of compounds alone and combined with antibacterials, broth microdilution (CLSI)
Format in all cases: cell-based
[1] = system: Escherichia coli (ECO) isolates
Method: Method 2: MIC of Compounds Alone and Combined with Antibacterials Against Bacterial Isolates
Compounds of the present invention were assessed against genotyped bacterial strains (Table 3, 4) alone or in combination with an antibacterial (Table 2). […] Log phase bacterial suspensions were adjusted to a final density of 5.10^5 CFU/mL in cation-adjusted Mueller-Hinton broth (ca-MHB; Becton-Dickinson and Company) and added to each well (98 μL). Microplates were incubated for 16-20 h at 35° C. in ambient air. The MIC of the compounds was defined as the lowest concentration of said compounds that prevented bacterial growth as read by visual inspection. The MIC of ATB at each compound concentration was defined as the lowest concentration of ATB that prevented bacterial growth as read by visual inspection.

[2] = system: Providencia stuartii (PST) isolates
Procedure, shortened: (§1)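 Compounds tested alone or with an antibacterial against genotyped isolates; DMSO dilutions spotted, then log-phase inoculum at 5.10^5 CFU/mL in cation-adjusted Mueller-Hinton broth added. Incubation 16-20 h at 35° C in ambient air. MIC read visually as lowest concentration preventing growth; for combinations, antibacterial MIC determined at each compound concentration.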

[3] = system: Salmonella typhimurium (STY) isolates; settings: for MIC ATB in combination: STY S3371
Procedure, shortened: as §1

C=CC1=C(C(=O)O)N2C(=O)[C@@H](NC(=O)/C(=N\OCC(=O)O)c3csc(N)n3)[C@H]2SC1 [FIX, Cefixime]
MIC ([1]; strain ECO UFR191, genotype TEM-1, CTX-M-24, OXA-48): >128 µg/mL | MIC ATB in combination ([1]; strain ECO UFR191, with AF2 @ 8 μg/mL): <0.25 µg/mL | MIC ATB in combination ([1]; strain ECO UFR191, with AF3 @ 8 μg/mL): <0.25 µg/mL | MIC ATB in combination ([1]; strain ECO UFR191, with CLA @ 4 μg/mL): 4 µg/mL | MIC ([1]; strain ECO UFR204, genotype TEM-1, CMY-4, OXA-48, VIM-1, antibiotic alone): >128 µg/mL | MIC ATB in combination ([1]; strain ECO UFR204, with AF2 @ 8 μg/mL): <0.25 µg/mL | MIC ATB in combination ([1]; strain ECO UFR204, with AF3 @ 8 μg/mL): <0.25 µg/mL | MIC ATB in combination ([1]; strain ECO UFR204, with CLA @ 4 μg/mL): >128 µg/mL | MIC ([1]; strain ECO UFR205, genotype CTX-M-15, VIM-4, antibiotic alone): >128 µg/mL | MIC ATB in combination ([1]; strain ECO UFR205, with AF2 @ 8 μg/mL): <=0.25 μg/mL | MIC ATB in combination ([1]; strain ECO UFR205, with AF3 @ 8 μg/mL): <=0.25 μg/mL | MIC ATB in combination ([1]; strain ECO UFR205, with CLA @ 4 μg/mL): >128 µg/mL | MIC ([1]; strain ECO UFR206, genotype TEM-1, CTX-M-15, OXA-1, VIM-4, antibiotic alone): >128 µg/mL | MIC ATB in combination ([1]; strain ECO UFR206, with AF2 @ 8 μg/mL): >128 µg/mL | MIC ATB in combination ([1]; strain ECO UFR206, with AF3 @ 8 μg/mL): >128 µg/mL | MIC ATB in combination ([1]; strain ECO UFR206, with CLA @ 4 μg/mL): >128 µg/mL | MIC ([1]; strain ECO UFR207, genotype CTX-M-15): >128 µg/mL | MIC ([1]; strain ECO UFR208, genotype SHV-12): >128 µg/mL | MIC ([1]; strain ECO UFR209, compound alone): 1024 µg/mL | MIC ([1]; strain ECO UFR209, genotype TEM-1, CTX-M-15): 1024 µg/mL | MIC ([1]; strain ECO UFR210, genotype SHV-12): 32 µg/mL | MIC ([1]; strain ECO UFR211, genotype TEM-24): >128 µg/mL | MIC ([1]; strain ECO UFR212, genotype CMY-2): >128 µg/mL | MIC ([1]; strain ECO UFR218, genotype TEM-1, SHV-1, CTX-M-15): >128 µg/mL | MIC ([1]; strain ECO UFR252GO, genotype VIM-2, antibiotic alone): >128 µg/mL | MIC ATB in combination ([1]; strain ECO UFR252GO, with AF2 @ 8 μg/mL): <0.25 µg/mL | MIC ATB in combination ([1]; strain ECO UFR252GO, with AF3 @ 8 μg/mL): <0.25 µg/mL | MIC ATB in combination ([1]; strain ECO UFR252GO, with CLA @ 4 μg/mL): >128 µg/mL | MIC ([1]; strain ECO UFR255, genotype NDM-1, antibiotic alone): >128 µg/mL | MIC ATB in combination ([1]; strain ECO UFR255, with AF2 @ 8 μg/mL): <0.25 µg/mL | MIC ATB in combination ([1]; strain ECO UFR255, with AF3 @ 8 μg/mL): <0.25 µg/mL | MIC ATB in combination ([1]; strain ECO UFR255, with CLA @ 4 μg/mL): >128 µg/mL | MIC ATB in combination ([2]; PST UFR94, AF2 @ 8 μg/mL): <=0.25 μg/mL | MIC ATB in combination ([2]; PST UFR94, AF3 @ 8 μg/mL): <=0.25 μg/mL | MIC ATB in combination ([2]; PST UFR94, CLA @ 4 μg/mL): 2 µg/mL | MIC ATB in combination ([2]; PST UFR95, AF2 @ 8 μg/mL): <=0.25 μg/mL | MIC ATB in combination ([2]; PST UFR95, AF3 @ 8 μg/mL): <=0.25 μg/mL | MIC ATB in combination ([2]; PST UFR95, CLA @ 4 μg/mL): 8 µg/mL | MIC ATB in combination ([2]; PST UFR120, AF2 @ 8 μg/mL): <0.25 µg/mL | MIC ATB in combination ([2]; PST UFR120, AF3 @ 8 μg/mL): <0.25 µg/mL | MIC ATB in combination ([2]; PST UFR120, CLA @ 4 μg/mL): <=0.25 μg/mL | MIC ATB in combination ([2]; PST UFR121, AF2 @ 8 μg/mL): <0.25 µg/mL | MIC ATB in combination ([2]; PST UFR121, AF3 @ 8 μg/mL): <0.25 µg/mL | MIC ATB in combination ([2]; PST UFR121, CLA @ 4 μg/mL): <=0.25 μg/mL | MIC ATB in combination ([2]; PST UFR122, AF2 @ 8 μg/mL): <0.25 µg/mL | MIC ATB in combination ([2]; PST UFR122, AF3 @ 8 μg/mL): <0.25 µg/mL | MIC ATB in combination ([2]; PST UFR122, CLA @ 4 μg/mL): <=0.25 μg/mL | MIC ATB in combination ([2]; PST UFR123, AF2 @ 8 μg/mL): <0.25 µg/mL | MIC ATB in combination ([2]; PST UFR123, AF3 @ 8 μg/mL): <0.25 µg/mL | MIC ATB in combination ([2]; PST UFR123, CLA @ 4 μg/mL): <=0.25 μg/mL | MIC ATB in combination ([2]; PST UFR124, AF2 @ 8 μg/mL): <0.25 µg/mL | MIC ATB in combination ([2]; PST UFR124, AF3 @ 8 μg/mL): <0.25 µg/mL | MIC ATB in combination ([2]; PST UFR124, CLA @ 4 μg/mL): <=0.25 μg/mL | MIC ATB in combination ([2]; PST UFR125, AF2 @ 8 μg/mL): <0.25 µg/mL | MIC ATB in combination ([2]; PST UFR125, AF3 @ 8 μg/mL): <0.25 µg/mL | MIC ATB in combination ([2]; PST UFR125, CLA @ 4 μg/mL): <=0.25 μg/mL | MIC ATB in combination ([2]; PST UFR235, AF2 @ 8 μg/mL): <=0.25 μg/mL | MIC ATB in combination ([2]; PST UFR235, AF3 @ 8 μg/mL): <=0.25 μg/mL | MIC ATB in combination ([2]; PST UFR235, CLA @ 4 μg/mL): 8 µg/mL | MIC ([2]; strain PST UFR94, genotype CTX-M-14): 0.5 µg/mL | MIC ([2]; strain PST UFR95, genotype TEM-24): 4 µg/mL | MIC ([2]; strain PST UFR98, genotype TEM-1, CMY-6, OXA-1, NDM-1, RmtC): >128 µg/mL | MIC ATB in combination ([2]; strain PST UFR98, with AF2 @ 8 μg/mL): 64 µg/mL | MIC ATB in combination ([2]; strain PST UFR98, with AF3 @ 8 μg/mL): 32 µg/mL | MIC ATB in combination ([2]; strain PST UFR98, with CLA @ 4 μg/mL): >128 µg/mL | MIC ([2]; strain PST UFR235, compound alone): 512 µg/mL | MIC ([2]; strain PST UFR235, genotype VEB-1): 512 µg/mL | MIC ATB in combination ([3]; AF2 @ 8 μg/mL): <0.25 µg/mL | MIC ATB in combination ([3]; AF3 @ 8 μg/mL): <0.25 µg/mL | MIC ATB in combination ([3]; CLA @ 4 μg/mL): <=0.25 μg/mL | MIC ([3]; strain STY S3371, genotype OXA-1): <=0.25 μg/mL
